Experimental data as given in ChEMBL document CHEMBL5608241, “Discovery of Novel Non-nucleoside DOT1LR231Q Inhibitors with Improved Pharmacokinetic Properties and Anti-lung Cancer Efficacy” (J Med Chem, 2024).

System: NCI-H460
Experiment: Antimigratory activity in human NCI-H460 cells exogenously expressing DOT1L R231Q mutant (unknown origin) (1 to 416 residues) assessed as decrease in number of migrating cells at 5 uM measured after 72 hrs by wound healing assay relative to control
Format: functional
Parameters: scale not given: the % may be the effect or the level left

CC(C)(C)c1ccc(NC(=O)NCCCN(CCCN2CCOCC2)CC2(O)CCN(c3nc(Cl)nc4sccc34)C2)cc1 (stereo unspecified) showed an Activity of 60.4%.
